Assay results published in paper PMC12673918, “Design, Synthesis, and Selective Antiproliferative Activity of Indolizine Derivatives as Microtubule Destabilizers” (Archiv Der Pharmazie, 2025).
Like-named read-outs stand apart in the source and are kept apart here.

What was measured:
Type in all cases: cell-based
[1] = biological target: T1, human P2X7 receptor (Homo sapiens, UniProt Q99572); experiment: YO‐PRO‐1 dye uptake assay for the P2X7 receptor; conditions: for off‐target activity against the P2X7 receptor: 10 μM; for inhibition at 10 µM: P2X7, read-out: % Inhibition of P2X7R at 10 µM compounds’ concentration
T1 construct: host or cells: HEK-293
T1 sequence (Q99572 1-595): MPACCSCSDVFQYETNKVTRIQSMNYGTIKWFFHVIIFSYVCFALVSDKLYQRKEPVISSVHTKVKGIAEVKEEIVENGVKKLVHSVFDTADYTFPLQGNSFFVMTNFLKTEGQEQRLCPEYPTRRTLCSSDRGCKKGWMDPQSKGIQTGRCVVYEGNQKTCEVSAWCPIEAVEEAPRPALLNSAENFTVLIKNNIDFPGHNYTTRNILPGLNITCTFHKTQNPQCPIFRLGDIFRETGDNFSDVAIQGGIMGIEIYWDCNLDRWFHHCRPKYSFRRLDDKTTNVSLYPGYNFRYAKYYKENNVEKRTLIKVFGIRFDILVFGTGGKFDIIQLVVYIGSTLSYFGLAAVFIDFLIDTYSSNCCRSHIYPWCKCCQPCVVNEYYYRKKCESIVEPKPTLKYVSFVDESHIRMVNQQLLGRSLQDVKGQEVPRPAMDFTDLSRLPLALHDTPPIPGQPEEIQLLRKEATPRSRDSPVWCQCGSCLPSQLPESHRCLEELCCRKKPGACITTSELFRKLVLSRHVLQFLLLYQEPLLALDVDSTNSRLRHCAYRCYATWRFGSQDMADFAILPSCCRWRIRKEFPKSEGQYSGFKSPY
Method: HEK‐293 cell lines stably expressing human P2X7 receptor (hP2X7R‐HEK‐293, B'SYS GmbH, Witterswil, Switzerland) were maintained in a 50/50 mix of Dulbecco's Modified Eagle Medium and F12 medium (DMEM/F12) supplemented with 9% (v/v) FCS, 1% (v/v) Penicillin/Streptomycin (10000 I.U./mL, 10 mg/mL in 0.9% NaCl) and G418 (100 µg/mL) at 37°C and 5% CO2. Cells were subcultured in cell culture 75 cm^2 flasks and split every 2‐4 days (1:3; 1:6; 1:10) once confluent.
HEK‐293 cell lines stably expressing human P2X7 receptor were seeded into black‐walled Nunc 96‐well optical bottom plates (Thermo Fisher Scientific) at 2.0–4.0 × 10^4 cells/well and incubated at 37°C for 24–48 h. After removing the culture medium, cells were washed with 100 µL wash buffer (280 mM Sucrose; 5.6 mM KCl; 0.5 mM CaCl2; 10 mM D‐Glucose; 10 mM HEPES; 5 mM N‐Methyl‐D‐glucamine (pH 7.4)). Then, 50 µL assay buffer (280 mM Sucrose; 6.4 mM KCl, 10 mM D‐Glucose; 10 mM HEPES; 5.0 mM N‐Methyl‐D‐glucamine (pH 7.4)) and 50 µL of antagonist dilutions (10^–5–10^–9 M) in assay buffer were added, and the cells were incubated at 37°C for 30 min. […] Finally, the uptake of YO‐PRO‐1 dye was recorded in a 9‐point‐well scan by following the fluorescence change using a FlexStation 3 Multi‐Mode Microplate Reader (Molecular Devices, San Jose, CA, USA, Software SoftMax7 Pro, endpoint protocol, well scan with reading pattern “fill scan”, λ ex = 485 nm, λ em = 535 nm). To determine the concentration‐dependent uptake inhibition by antagonists, the YO‐PRO‐1 uptake, expressed as RFU, was plotted against the concentrations of the compounds.

[2] = test system: BT‐20 (breast carcinoma); experiment: Resazurin cell viability assay, BT‐20; conditions: Homo sapiens, BT-20; for inhibition at 50 µM: read-out: % Cellular growth inhibition (at 50 µM) BT‐20
How it was run: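 Cells in DMEM/10% FBS, 1 × 10^3 per well, adhered overnight, then treated with compounds (0–50 µM) for 72 h. Viability read as fluorescence (ex 530, em 590 nm) after 4 h with 44 µM resazurin. % growth inhibition at 50 µM and IC50 by nonlinear regression, triplicates.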

[3] = test system: OHMF (non‐tumoral oral fibroblast); experiment: Resazurin cell viability assay, OHMF fibroblasts; conditions: Homo sapiens, 72 h, n = 3
Method: The tongue squamous cell carcinoma cell line CAL‐27 (ATCC CRL‐2095), breast carcinoma BT‐20 (ATCC HTB‐19), gastric carcinoma HGC‐27 (BCRJ Code 0310), and normal oral fibroblast OHMF (culture of fibroblasts derived from human oral healthy mucosa, approved by the Research Ethics Committee of the University of São Paulo, Campus of Ribeirão Preto, Brazil (with protocol number 049) were cultured in DMEM medium (DMEM, Sigma‐Aldrich, St. Louis, MO, USA) supplemented with 10% fetal bovine serum and a solution of penicillin (100 U/mL) and streptomycin (100 μg/mL). The cultures were maintained in a humidified incubator with 5% CO₂ at 37°C.
Cell viability was analyzed using the resazurin assay. For this, cells were seeded in 96‐well plates (1 × 10^3 cells per well) and incubated at 37°C with 5% CO₂ overnight for cell adhesion. Subsequently, the cells were treated with different compounds (0–50 µM) for 72 h. After treatment, the medium was replaced with phenol‐free DMEM medium (Sigma‐Aldrich) containing resazurin at a concentration of 44 µM (Sigma‐Aldrich). After incubation for 4 h at 37°C, fluorescence detection was performed (excitation 530/25 nm, emission 590/35 nm) using a microplate fluorimeter (Synergy 2, Biotek). Initial cell growth inhibition assays were performed in triplicate or quadruplicate, while IC50 determinations were conducted in triplicate. Data were plotted, and IC₅₀ values were determined by nonlinear regression using GraphPad Prism software 9.0.

[4] = 72 h, mean ± SD, n = 3, read-out: IC50 (nM) BT‐20
[5] = 72 hours, triplicate, read-out: IC50 (nM, Cellular growth inhibition) BT-20 (supplement)

SMILES | inhibition at 10 µM [1] [%] | IC50 [2, 4] [nM] | IC50 [2, 5] [nM] | off‐target activity against the P2X7 receptor [1] | inhibition at 50 µM ([2]; 72 h, mean ± SD, n = 3) [%] | IC50 [3] [nM]
CCCc1cn2cc(OC)ccc2c1C(=O)c1cc(OC)c(OC)c(OC)c1 [Compound 8h, (6‐methoxy‐2‐propylindolizin‐1‐yl)(3,4,5‐trimethoxyphenyl)methanone] | -1 | 90 ± 56 | 47 ± 18 | none of the synthesized compounds, including 8e and 8h, showed significant activity | 71 ± 2.8 | > 50000
COc1ccc2c(C(=O)c3cc(OC)c(OC)c(OC)c3)c(C(F)(F)F)cn2c1 [Compound 8e, [6‐methoxy‐2‐(trifluoromethyl)indolizin‐1‐yl](3,4,5‐trimethoxyphenyl)methanone] | 8 | 105 ± 49 | 75 ± 21 | none of the synthesized compounds, including 8e and 8h, showed significant activity | 62 ± 2.3 | > 50000
COc1ccc2c(C(=O)c3cc(OC)c(OC)c(OC)c3)c(C(C)(C)C)cn2c1 [Compound 8b, [2‐(Tert‐Butyl)‐6‐Methoxyindolizin‐1‐yl](3,4,5‐Trimethoxyphenyl)Methanone] | -7 |  |  |  | 62 ± 0.5 | 

Further lines, with some results ahead:

inhibition at 10 µM [1] [%] | IC50 [2, 4] [nM] | IC50 [2, 5] [nM] | SMILES | off‐target activity against the P2X7 receptor [1] | inhibition at 50 µM ([2]; 72 h, mean ± SD, n = 3) [%] | IC50 [3] [nM]
9 | 370 ± 28 | 325 ± 92 | COc1ccc2c(C(=O)c3cc(OC)c(OC)c(OC)c3)c(C)cn2c1 [Compound 8a, (6‐methoxy‐2‐methylindolizin‐1‐yl)(3,4,5‐trimethoxyphenyl)methanone] |  | 52 ± 5 | > 50000
4 | 14100 | 12400 | COc1ccc2c(C(=O)c3ccc(Cl)c(Cl)c3)ccn2c1 [Compound 7e, (6‐methoxyindolizin‐1‐yl)(3,4‐dichlorophenyl)methanone] |  | 53 ± 1.8 | > 50000
10 | 800 ± 127 | 690 ± 156 | COc1ccc(-c2cn3cc(OC)ccc3c2C(=O)c2cc(OC)c(OC)c(OC)c2)cc1 [Compound 8k, [6‐methoxy‐2‐(4‐methoxyphenyl)indolizin‐1‐yl](3,4,5‐trimethoxyphenyl)methanone] |  | 64 ± 1.5 | > 50000
-2 | 465 ± 35 | 300 ± 85 | COc1ccc2c(C(=O)c3cc(OC)c(OC)c(OC)c3)c(-c3ccc(C)cc3)cn2c1 [Compound 8j, [6‐methoxy‐2‐(p ‐tolyl)indolizin‐1‐yl](3,4,5‐trimethoxyphenyl)methanone] |  | 61 ± 2 | > 50000
